Test results as given in ChEMBL document CHEMBL3525906, “A comprehensive assessment of repaglinide metabolic pathways: impact of choice of in vitro system and relative enzyme contribution to in vitro clearance” (Drug Metab Dispos, 2012).

What was measured:
[1] = species: Homo sapiens; assay: Ratio of AUC in human patient at 0.25 mg to AUC in human patient at 0.25 mg co-treated with cyclosporine; type: ADME, organism-based; settings: in vivo
[2] = species: Homo sapiens; assay: Drug metabolism in variable SLCO1B1 genotype containing human patient assessed as fold change in metabolite M2/M4 AUC ratio at 0.25 mg co-treated with gemfibrozil relative to gemfibrozil non-treated patient; type: ADME, organism-based; settings: in vivo
[3] = Half life in type 2 diabetes patient; type: ADME, organism-based; settings: human, in vivo
[4] = molecular target: T1, Cytochrome P450 3A4 (Homo sapiens, UniProt P08684); assay: Unbound intrinsic clearance in human recombinant CYP3A4 expressed in insect cells assessed as enzyme-mediated 2-despiperidyl-2-amino repaglinide formation per nanomole of protein at 0.5 to 150 uM by LC-MS/MS method; type: ADME
T1 sequence (P08684 whole entry): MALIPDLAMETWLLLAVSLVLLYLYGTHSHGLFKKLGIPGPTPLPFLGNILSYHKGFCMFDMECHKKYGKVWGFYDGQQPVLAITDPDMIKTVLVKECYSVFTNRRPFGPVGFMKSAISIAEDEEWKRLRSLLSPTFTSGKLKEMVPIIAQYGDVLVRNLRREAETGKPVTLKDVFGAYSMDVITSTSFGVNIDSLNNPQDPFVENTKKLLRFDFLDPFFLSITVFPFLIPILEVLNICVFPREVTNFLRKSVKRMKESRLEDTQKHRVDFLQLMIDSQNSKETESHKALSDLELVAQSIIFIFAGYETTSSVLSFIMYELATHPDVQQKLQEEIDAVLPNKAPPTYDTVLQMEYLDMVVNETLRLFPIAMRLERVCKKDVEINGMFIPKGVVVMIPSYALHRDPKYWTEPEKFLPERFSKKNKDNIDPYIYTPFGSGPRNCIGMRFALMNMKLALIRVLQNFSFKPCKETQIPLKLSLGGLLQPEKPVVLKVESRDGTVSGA

[5] = species: Homo sapiens; assay: Drug metabolism in human patient assessed as fold change in metabolite M2/M4 AUC ratio at 0.25 mg co-treated with telithromycin and montelukast relative to telithromycin and montelukast non-treated patient; type: ADME, organism-based; settings: in vivo
[6] = tested on: Liver microsome; assay: Drug metabolism in human liver microsomes assessed as 3'-hydroxy repaglinide formation measured per mg of protein at 0.5 to 150 uM by LC-MS/MS method; type: ADME
[7] = species: Homo sapiens; assay: Drug metabolism in variable SLCO1B1 genotype containing human patient assessed as fold change in metabolite M2/M1 AUC ratio at 0.25 mg co-treated with gemfibrozil relative to gemfibrozil non-treated patient; type: ADME, organism-based; settings: in vivo
[8] = tested on: Liver microsome; assay: Drug metabolism in human liver microsomes assessed as 2-despiperidyl-2-amino repaglinide formation measured per mg of protein at 0.5 to 150 uM by LC-MS/MS method; type: ADME
[9] = Unbound intrinsic clearance in human hepatic S9 fraction assessed as 3'-hydroxy repaglinide formation measured per mg of protein at 0.5 to 150 uM by LC-MS/MS method; type: ADME, tissue-based, Liver; settings: s9, 150 µM
[10] = tested on: Liver microsome; assay: Drug metabolism in human liver microsomes assessed as glucuronide formation measured per mg of protein at 0.5 to 150 uM by LC-MS/MS method; type: ADME
[11] = molecular target: T1, Cytochrome P450 3A4; assay: Fraction metabolism via CYP3A4 in human liver microsomes; type: ADME
[12] = species: Homo sapiens; assay: Drug metabolism in human patient assessed as fold change in metabolite M2/M1 AUC ratio at 0.25 mg co-treated with telithromycin and montelukast relative to telithromycin and montelukast non-treated patient; type: ADME, organism-based; settings: in vivo
[13] = tested on: Hepatocyte; assay: Unbound intrinsic clearance in human hepatocytes assessed as 2-despiperidyl-2-amino repaglinide formation measured per 10^6 cells at 0.5 to 150 uM by LC-MS/MS method; type: ADME, cell-based
[14] = species: Homo sapiens; assay: Ratio of AUC in human patient at 0.25 mg to AUC in human patient at 0.25 mg co-treated with atorvastatin; type: ADME, organism-based; settings: in vivo
[15] = species: Homo sapiens; assay: Ratio of AUC in human patient at 0.25 mg to AUC in human patient at 0.25 mg co-treated with gemfibrozil and itraconazole; type: ADME, organism-based; settings: in vivo
[16] = species: Homo sapiens; assay: Drug metabolism in human patient assessed as fold change in metabolite M2/M1 AUC ratio at 0.25 mg co-treated with montelukast relative to montelukast non-treated patient; type: ADME, organism-based; settings: in vivo
[17] = Drug metabolism in human hepatic S9 fraction assessed as 2-despiperidyl-2-(5-carboxypentylamine) repaglinide formation by LC-MS/MS method; type: ADME, Liver
[18] = species: Homo sapiens; assay: Drug metabolism in human patient assessed as fold change in metabolite M2/M1 AUC ratio at 0.25 mg co-treated with telithromycin relative to telithromycin non-treated patient; type: ADME, organism-based; settings: in vivo
[19] = species: Homo sapiens; assay: Ratio of AUC in variable OATP1B1 genotype human patient at 0.25 mg to AUC in ariable OATP1B1 genotype human patient at 0.25 mg co-treated with gemfibrozil on various time intervals; type: ADME, organism-based; settings: in vivo
[20] = Drug metabolism in human hepatic S9 fraction assessed as glucuronide formation by LC-MS/MS method; type: ADME, Liver
[21] = Drug metabolism in human hepatic S9 fraction assessed as 3'-hydroxy repaglinide formation by LC-MS/MS method; type: ADME, Liver
[22] = species: Homo sapiens; assay: Ratio of AUC in human patient at 0.25 mg to AUC in human patient at 0.25 mg co-treated with telithromycin and montelukast; type: ADME, organism-based; settings: in vivo
[23] = tested on: Liver microsome; assay: Drug metabolism in human liver microsomes assessed as 2-despiperidyl-2-(5-carboxypentylamine) repaglinide formation measured per mg of protein at 0.5 to 150 uM by LC-MS/MS method; type: ADME
[24] = tested on: Hepatocyte; assay: Drug metabolism in human hepatocytes assessed as 2-despiperidyl-2-amino repaglinide formation measured per 10^6 cells at 0.5 to 150 uM by LC-MS/MS method; type: ADME, cell-based
[25] = tested on: Hepatocyte; assay: Drug metabolism in human hepatocytes assessed as glucuronide formation measured per 10^6 cells at 0.5 to 150 uM by LC-MS/MS method; type: ADME, cell-based
[26] = tested on: Liver microsome; assay: Drug metabolism in human liver microsomes assessed as 2-despiperidyl-2-(5-carboxypentylamine) repaglinide formation by LC-MS/MS method; type: ADME
[27] = tested on: Liver microsome; assay: Drug metabolism in human liver microsomes assessed as glucuronide formation by LC-MS/MS method; type: ADME
[28] = Drug metabolism in human hepatic S9 fraction assessed as 2-despiperidyl-2-(5-carboxypentylamine) repaglinide formation measured per mg of protein at 0.5 to 150 uM by LC-MS/MS method; type: ADME, Liver; settings: s9, 150 µM
[29] = Fraction metabolism via UGT in human hepatic S9 fraction; type: ADME, Liver
[30] = tested on: Hepatocyte; assay: Unbound intrinsic clearance in human hepatocytes assessed as glucuronide formation measured per 10^6 cells at 0.5 to 150 uM by LC-MS/MS method; type: ADME, cell-based
[31] = molecular target: Cytochrome P450 3A5 (Homo sapiens, UniProt P20815); assay: Unbound intrinsic clearance in human recombinant CYP3A5 expressed in insect cells assessed as enzyme-mediated 2-despiperidyl-2-amino repaglinide formation per nanomole of protein at 0.5 to 150 uM by LC-MS/MS method; type: ADME
Chain of Cytochrome P450 3A5 (P20815 whole entry): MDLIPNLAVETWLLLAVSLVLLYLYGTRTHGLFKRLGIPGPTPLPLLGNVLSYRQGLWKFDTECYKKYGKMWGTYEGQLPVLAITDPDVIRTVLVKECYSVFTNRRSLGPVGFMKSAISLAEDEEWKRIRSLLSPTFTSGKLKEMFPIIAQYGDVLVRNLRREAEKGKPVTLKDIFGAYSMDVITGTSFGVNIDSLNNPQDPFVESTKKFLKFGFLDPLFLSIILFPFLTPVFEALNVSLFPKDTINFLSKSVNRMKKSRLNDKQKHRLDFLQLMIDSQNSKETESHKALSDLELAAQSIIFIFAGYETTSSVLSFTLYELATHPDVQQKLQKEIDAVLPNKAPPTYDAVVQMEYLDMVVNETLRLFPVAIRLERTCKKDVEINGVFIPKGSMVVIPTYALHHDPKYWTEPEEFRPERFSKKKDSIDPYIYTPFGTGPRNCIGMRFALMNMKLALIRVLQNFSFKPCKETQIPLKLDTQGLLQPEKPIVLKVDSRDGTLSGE

[32] = Unbound intrinsic clearance in human hepatic S9 fraction assessed as 2-despiperidyl-2-amino repaglinide formation measured per mg of protein at 0.5 to 150 uM by LC-MS/MS method; type: ADME, tissue-based, Liver; settings: s9, 150 µM
[33] = molecular target: T2, Cytochrome P450 2C8 (Homo sapiens, UniProt P10632); assay: Fraction metabolism via CYP2C8 in human hepatocytes; type: ADME, cell-based, Hepatocyte
T2 sequence (P10632 whole entry): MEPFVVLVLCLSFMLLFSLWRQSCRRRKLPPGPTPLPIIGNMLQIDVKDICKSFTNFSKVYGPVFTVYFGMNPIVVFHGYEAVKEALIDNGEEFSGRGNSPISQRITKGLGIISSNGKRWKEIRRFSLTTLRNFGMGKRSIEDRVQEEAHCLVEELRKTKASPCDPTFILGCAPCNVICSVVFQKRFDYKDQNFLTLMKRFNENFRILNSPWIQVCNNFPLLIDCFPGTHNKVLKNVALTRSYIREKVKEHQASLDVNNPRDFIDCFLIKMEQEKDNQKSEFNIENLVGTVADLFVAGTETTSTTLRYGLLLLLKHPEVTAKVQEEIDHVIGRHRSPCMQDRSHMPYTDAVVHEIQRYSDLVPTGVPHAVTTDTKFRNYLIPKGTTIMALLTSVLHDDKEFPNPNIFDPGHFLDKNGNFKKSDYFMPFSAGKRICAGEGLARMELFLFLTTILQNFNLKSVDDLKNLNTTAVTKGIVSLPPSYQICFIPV

In the case of CCOc1cc(CC(=O)N[C@@H](CC(C)C)c2ccccc2N2CCCCC2)ccc1C(=O)O [REPAGLINIDE], the Ratio [1] is reported as 2.4, the “fold change (FC)” value [2] is reported as 6.4 and the half-life [3] is reported as 1 h. The CL free [4] was 120 µL/min/nmol, the “fold change (FC)” value [5] was 0.82 and the Vmax [6] was 130 pmol/min/mg. The “fold change (FC)” value [7] was 0.38, the Vmax [8] was 170 pmol/min/mg and the CL free [9] was 2.7 µL/min/mg. The Vmax [10] was 170 pmol/min/mg, the Fm [11] was 0.2 and the “fold change (FC)” value [12] was 4.3. For the same compound, the CL free [13] was 0.75 uL/min/10^6cells, the Ratio [14] was 1.2 and the Ratio [15] was 19. For the same compound, the “fold change (FC)” value [16] was 1.1, the Km [17] was 47 µM and the “fold change (FC)” value [18] was 3.9. It also gave a Ratio [19] of 1, a Km [20] of 47 µM and a Km [21] of 13 µM. For the same compound, the Ratio [22] was 1.9, the Vmax [23] was 28 pmol/min/mg and the Vmax [24] was 23 pmol/min/10^6cells. It also gave a Vmax [25] of 5.7 pmol/min/10^6cells, a Km [26] of 24 µM and a Km [27] of 37 µM. The Vmax [28] was 94 pmol/min/mg, the Fm [29] was 0.2 and the CL free [30] was 0.13 uL/min/10^6cells. The CL free [31] was 1.4 µL/min/nmol, the CL free [32] was 0.76 µL/min/mg and the Fm [33] was 0.49.
